# From publication PMC10820527, “Synthesis, Characterization, and Investigation of Anti-Inflammatory and Cytotoxic Activities of Novel Thiourea Derivatives of Naproxen” (Pharmaceutics, 2023)
# Experiments:
# [1] = system: carrageenan-induced rat paw edema; experiment: Carrageenan-induced rat paw edema model; type: in vivo; details: for Rat Paw Thickness: mean ± SD; for inhibition in vivo at 2.5 mg/kg / inhibition in vivo at 5 mg/kg / inhibition in vivo at 10 mg/kg: Rattus norvegicus
# Experimental: The Carrageenan-induced rat paw edema model was used to assess the anti-inflammatory potential of novel compounds 8–14. Induction of inflammation was performed in all animals by intraplantar injection of […] 0.5% carrageenan saline into the left hind paw.
# Animals (n = 200) were randomly divided into the following groups: control groups, that received either 1% DMSO or naproxen, and experimental groups, that received the novel compounds 8–14.
# Control groups included DMSO and naproxen groups. Rats belonging to the DMSO group received 1% DMSO in the same volume as the compounds 8–14, 60 min before carrageenan injection. Moreover, naproxen groups included rats that were subjected to naproxen treatment in three doses: 2.5 mg/kg, 5 mg/kg, and 10 mg/kg. Naproxen was applied in the same manner as 1% DMSO.
# Experimental groups included rats that were treated with compounds 8–14 and they were divided into three subgroups depending on the applied dose: 2.5 mg/kg, 5 mg/kg, and 10 mg/kg. The examined compounds were dissolved in 1% DMSO prior to treatment and applied to rats 60 min before inducing inflammation, i.e., before carrageenan injection. Doses of naproxen and investigated compounds were defined based on our previously published research.
# In order to quantify the anti-inflammatory effects of the tested compounds, left paw thickness was measured at specific time points: prior to inflammation induction (moment 0) and 1, 2, 3, and 4 h (moments 1, 2, 3, and 4) following carrageenan injection. Tissue thickness was measured in the middle of the rat paw using a Digital Vernier caliper (Aerospace, China). The percentage of inhibition of paw edema after treatment with different agents was calculated according to the formula, Equation (2):% Inhibition = 100 × [1 − (Yt/Yc)](2) where Yt = average increase in paw thickness in the treated group of rats between two measurement moments, and Yc = average increase in paw thickness in the untreated group of rats between two measurement moments.
# HCT 116 = experiment: MTT cytotoxicity assay, HCT 116; type: cell-based, human; details: for IC50: Homo sapiens, mean ± SD
# Experimental: Three cancer cell lines (MDA-MB-231, HCT116 and HeLa; i.e., human breast cancer cells, human colorectal cancer cells, and human cervical cancer cells, respectively), and one non-malignant fibroblast MRC-5 cell line (control) were used in this study. The American Type Cell Collection (ATCC, Manassas, VA, USA) provided all examined cell lines. The cells were grown in a complete medium made up of high-glucose DMEM media supplemented with 10% fetal bovine serum and […] L-glutamine (both from Sigma-Aldrich, USA). The cells were cultured in 25 cc flasks (Thermo Fischer Scientific, Waltham, MA, USA) at 37 °C with 100% humidity in a 5% CO2 atmosphere.
# The MTT test was used to assess the cytotoxicity of compounds 1–14 [44]. The cytotoxicity of naproxen was also investigated due to its clinical use and structural similarity. Throughout the exponential development period, cells were taken from culture flasks and counted, and 5 × 10^3 cells/well were planted into 96-well culture plates. Following that, the cell lines were treated with varying doses of the investigated chemicals (1–14), naproxen ([…]), and fresh complete media as a control. All evaluated cells were incubated for 24, 48, and 72 h at 37 °C in an environment containing 5% CO2 and 100% humidity. Following incubation, each well’s culture media was taken out, each well received an addition of MTT solution at a final concentration of 0.5 mg/mL, and the cells were left to incubate for an additional four hours. The MTT solution was then withdrawn carefully, and the formazan crystals were dissolved in DMSO. After shaking the plates for 10 min, absorbance at 595 nm was measured using a multiplate reader (Zenyth 3100, Anthos Labtec Instruments, Salzburg, Austria). All concentrations of the tested compounds were performed in three separate wells of the microtiter plates and in three separate experiments. The results were reported as a ratio to the control value, untreated cells. IC50 values were also determined using Microsoft Office Excel 2021. The percentage of viable cells was estimated by dividing the readout absorbance value in the wells containing treated cells by the average absorbance value measured in the wells containing untreated cells, and multiplying the result by 100 [44]. % of the viable cells = ((absorbance of treated cell-absorbance of blank)/(absorbance of untreated cell-absorbance of blank)) × 100(3)
# [2] = 2.5 mg/kg, 1 h after carrageenan
# [3] = 2.5 mg/kg, 2 h after carrageenan
# [4] = 2.5 mg/kg, 3 h after carrageenan
# [5] = 2.5 mg/kg, 4 h after carrageenan
# [6] = 5.0 mg/kg, 1 h after carrageenan
# [7] = 5.0 mg/kg, 2 h after carrageenan
# [8] = 5.0 mg/kg, 3 h after carrageenan
# [9] = 5.0 mg/kg, 4 h after carrageenan
# [10] = 10.0 mg/kg, 1 h after carrageenan
# [11] = 10.0 mg/kg, 2 h after carrageenan
# [12] = 10.0 mg/kg, 3 h after carrageenan
# [13] = 10.0 mg/kg, 4 h after carrageenan
compound,measurement,setting,value
"COC(=O)[C@H](Cc1ccccc1)NC(=S)NC(=O)[C@@H](C)c1ccc2cc(OC)ccc2c1 [Compound 13, Methyl (((S)-2-(6-methoxynaphthalen-2-yl)propanoyl)carbamothioyl)phenylalaninate]",Rat Paw Thickness,[1]; [2],7.0 ± 0.10 mm
same,Rat Paw Thickness,[1]; [3],6.60 ± 0.10 mm
same,Rat Paw Thickness,[1]; [4],6.13 ± 0.12 mm
same,Rat Paw Thickness,[1]; [5],5.83 ± 0.06 mm
same,Rat Paw Thickness,[1]; [6],6.90 ± 0.10 mm
same,Rat Paw Thickness,[1]; [7],6.43 ± 0.32 mm
same,Rat Paw Thickness,[1]; [8],5.90 ± 0.36 mm
same,Rat Paw Thickness,[1]; [9],5.47 ± 0.23 mm
same,Rat Paw Thickness,[1]; [10],6.77 ± 0.42 mm
same,Rat Paw Thickness,[1]; [11],6.40 ± 0.36 mm
same,Rat Paw Thickness,[1]; [12],6.10 ± 0.36 mm
same,Rat Paw Thickness,[1]; [13],5.80 ± 0.30 mm
same,inhibition in vivo at 2.5 mg/kg,"[1]; 2.5 mg/kg, 1 h",6.12%
same,inhibition in vivo at 2.5 mg/kg,"[1]; 2.5 mg/kg, 2 h",13.6%
same,inhibition in vivo at 2.5 mg/kg,"[1]; 2.5 mg/kg, 3 h",22.5%
same,inhibition in vivo at 2.5 mg/kg,"[1]; 2.5 mg/kg, 4 h",24.4%
same,inhibition in vivo at 5 mg/kg,"[1]; 5.0 mg/kg, 1 h",-0.68%
same,inhibition in vivo at 5 mg/kg,"[1]; 5.0 mg/kg, 2 h",9.09%
same,inhibition in vivo at 5 mg/kg,"[1]; 5.0 mg/kg, 3 h",20.7%
same,inhibition in vivo at 5 mg/kg,"[1]; 5.0 mg/kg, 4 h",31.1%
same,inhibition in vivo at 10 mg/kg,"[1]; 10.0 mg/kg, 1 h",19.7%
same,inhibition in vivo at 10 mg/kg,"[1]; 10.0 mg/kg, 2 h",27.3%
same,inhibition in vivo at 10 mg/kg,"[1]; 10.0 mg/kg, 3 h",29.7%
same,inhibition in vivo at 10 mg/kg,"[1]; 10.0 mg/kg, 4 h",33.3%
same,IC50,"HCT 116; HCT-116, 24 h",> 200 µM
same,IC50,"HCT 116; HCT-116, 48 h",> 200 µM
same,IC50,"HCT 116; HCT-116, 72 h",99.6 ± 4.9 µM
"COc1ccc2cc([C@H](C)C(=O)NC(=S)Nc3ccccc3)ccc2c1 [Compound 8, (S)-2-(6-methoxynaphthalen-2-yl)-N-(phenylcarbamothioyl)propanamide]",Rat Paw Thickness,[1]; [2],5.67 ± 0.15 mm
same,Rat Paw Thickness,[1]; [3],5.43 ± 0.15 mm
same,Rat Paw Thickness,[1]; [4],5.07 ± 0.21 mm
same,Rat Paw Thickness,[1]; [5],4.53 ± 0.50 mm
same,Rat Paw Thickness,[1]; [6],6.0 ± 0.36 mm
same,Rat Paw Thickness,[1]; [7],5.8 ± 0.44 mm
same,Rat Paw Thickness,[1]; [8],5.40 ± 0.44 mm
same,Rat Paw Thickness,[1]; [9],4.96 ± 0.35 mm
same,Rat Paw Thickness,[1]; [10],6.0 ± 0.40 mm
same,Rat Paw Thickness,[1]; [11],5.60 ± 0.44 mm
same,Rat Paw Thickness,[1]; [12],5.27 ± 0.38 mm
same,Rat Paw Thickness,[1]; [13],5.07 ± 0.21 mm
same,inhibition in vivo at 2.5 mg/kg,"[1]; 2.5 mg/kg, 1 h",19.7%
same,inhibition in vivo at 2.5 mg/kg,"[1]; 2.5 mg/kg, 2 h",21.2%
same,inhibition in vivo at 2.5 mg/kg,"[1]; 2.5 mg/kg, 3 h",26.1%
same,inhibition in vivo at 2.5 mg/kg,"[1]; 2.5 mg/kg, 4 h",44.4%
same,inhibition in vivo at 5 mg/kg,"[1]; 5.0 mg/kg, 1 h",23.8%
same,inhibition in vivo at 5 mg/kg,"[1]; 5.0 mg/kg, 2 h",24.2%
same,inhibition in vivo at 5 mg/kg,"[1]; 5.0 mg/kg, 3 h",31.5%
same,inhibition in vivo at 5 mg/kg,"[1]; 5.0 mg/kg, 4 h",44.9%
same,inhibition in vivo at 10 mg/kg,"[1]; 10.0 mg/kg, 1 h",29.3%
same,inhibition in vivo at 10 mg/kg,"[1]; 10.0 mg/kg, 2 h",39.4%
same,inhibition in vivo at 10 mg/kg,"[1]; 10.0 mg/kg, 3 h",45.9%
same,inhibition in vivo at 10 mg/kg,"[1]; 10.0 mg/kg, 4 h",46.7%
same,IC50,"HCT 116; HCT-116, 24 h",> 200 µM
same,IC50,"HCT 116; HCT-116, 48 h",> 200 µM
same,IC50,"HCT 116; HCT-116, 72 h",101 ± 15.5 µM
"COc1ccc2cc([C@H](C)C(=O)NC(=S)Nc3ccccc3C)ccc2c1 [Compound 10, (S)-2-(6-methoxynaphthalen-2-yl)-N-(o-tolylcarbamothioyl)propanamide]",Rat Paw Thickness,[1]; [2],6.17 ± 0.51 mm
same,Rat Paw Thickness,[1]; [3],6.07 ± 0.83 mm
same,Rat Paw Thickness,[1]; [4],5.77 ± 0.85 mm
same,Rat Paw Thickness,[1]; [5],5.17 ± 0.75 mm
same,Rat Paw Thickness,[1]; [6],6.47 ± 0.51 mm
same,Rat Paw Thickness,[1]; [7],6.13 ± 0.47 mm
same,Rat Paw Thickness,[1]; [8],5.77 ± 0.32 mm
same,Rat Paw Thickness,[1]; [9],5.67 ± 0.40 mm
same,Rat Paw Thickness,[1]; [10],6.20 ± 0.36 mm
same,Rat Paw Thickness,[1]; [11],5.93 ± 0.31 mm
same,Rat Paw Thickness,[1]; [12],5.70 ± 0.44 mm
same,Rat Paw Thickness,[1]; [13],5.20 ± 0.44 mm
same,inhibition in vivo at 2.5 mg/kg,"[1]; 2.5 mg/kg, 1 h",18.4%
same,inhibition in vivo at 2.5 mg/kg,"[1]; 2.5 mg/kg, 2 h",13.6%
same,inhibition in vivo at 2.5 mg/kg,"[1]; 2.5 mg/kg, 3 h",13.5%
same,inhibition in vivo at 2.5 mg/kg,"[1]; 2.5 mg/kg, 4 h",33.3%
same,inhibition in vivo at 5 mg/kg,"[1]; 5.0 mg/kg, 1 h",29.3%
same,inhibition in vivo at 5 mg/kg,"[1]; 5.0 mg/kg, 2 h",36.4%
same,inhibition in vivo at 5 mg/kg,"[1]; 5.0 mg/kg, 3 h",44.1%
same,inhibition in vivo at 5 mg/kg,"[1]; 5.0 mg/kg, 4 h",37.8%
same,inhibition in vivo at 10 mg/kg,"[1]; 10.0 mg/kg, 1 h",19.7%
same,inhibition in vivo at 10 mg/kg,"[1]; 10.0 mg/kg, 2 h",22.7%
same,inhibition in vivo at 10 mg/kg,"[1]; 10.0 mg/kg, 3 h",20.7%
same,inhibition in vivo at 10 mg/kg,"[1]; 10.0 mg/kg, 4 h",35.6%
same,Cytotoxic effect against the HCT 116 cell line (in words),HCT 116,moderate cytotoxic effects
same,IC50,"HCT 116; HCT-116, 24 h",120 ± 8.8 µM
same,IC50,"HCT 116; HCT-116, 48 h",97.2 ± 6.8 µM
same,IC50,"HCT 116; HCT-116, 72 h",33.3 ± 5.5 µM
